Earlier results as cited in patent US6395296B1, “Soluble double metal salt of group IA and IIA of hydroxycitric acid, process of preparing the same and its use in beverages and other food products without effecting their flavor and properties” (priority 1997, dated 2002).

Assays:
[1] = system: conversion of excess carbohydrates to fat; conditions: in animals; established by several scientists including at Hoffman-La Roche
[2] = system: ATP dependent citrate-lyase; conditions: key enzyme in diverting carbohydrate to fatty acids and cholesterol synthesis; Sullivan et al., Sergio

O=C(O)CC(O)(C(=O)O)C(O)C(=O)O (single isomer, unassigned; (-)) [HCA, (−) Hydroxycitric acid]
conversion of excess carbohydrates to fat [1]: prevents the conversion of excess carbohydrates to fat | inhibition of ATP dependent citrate-lyase [2]: inhibit
